Measurements: patent publication US8461328B2, “Tricyclic heterocyclic compounds, compositions and methods of use thereof” (Genentech, Inc., priority 2010, dated 2013)

What was measured:
Format in all cases: biochemical
JAK1 = target: T1, JAK1 (Homo sapiens, UniProt P23458); assay: JAK1 inhibition (Table 4); conditions: read-out: JAK1 Ki
T1 construct: made in house; host or cells: SF9 insect cells (baculovirus)

JAK2 = target: T2, JAK2 (Homo sapiens, UniProt O60674); assay: JAK2 inhibition (Table 4); conditions: read-out: JAK2 Ki
T2 construct: made in house; host or cells: SF9 insect cells (baculovirus)

TYK2 = target: T3, TYK2 (Homo sapiens, UniProt P29597); assay: TYK2 inhibition (Table 4)
T3 construct: made in house; host or cells: SF9 insect cells (baculovirus)
T3 sequence (P29597 873-1187): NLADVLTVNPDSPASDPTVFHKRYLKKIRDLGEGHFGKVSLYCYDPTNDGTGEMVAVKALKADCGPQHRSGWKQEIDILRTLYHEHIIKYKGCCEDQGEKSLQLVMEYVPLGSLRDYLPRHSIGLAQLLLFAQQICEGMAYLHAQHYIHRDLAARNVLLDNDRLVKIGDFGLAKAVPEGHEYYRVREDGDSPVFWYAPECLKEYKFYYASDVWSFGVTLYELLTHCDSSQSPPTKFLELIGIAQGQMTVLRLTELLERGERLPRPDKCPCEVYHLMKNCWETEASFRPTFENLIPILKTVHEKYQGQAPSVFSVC

JAK3 = target: T4, JAK3 (Homo sapiens, UniProt P52333); assay: JAK3 inhibition (Table 4); conditions: read-out: JAK3 Ki
T4 construct: made in house; host or cells: SF9 insect cells (baculovirus)
T4 sequence (P52333 783-1124): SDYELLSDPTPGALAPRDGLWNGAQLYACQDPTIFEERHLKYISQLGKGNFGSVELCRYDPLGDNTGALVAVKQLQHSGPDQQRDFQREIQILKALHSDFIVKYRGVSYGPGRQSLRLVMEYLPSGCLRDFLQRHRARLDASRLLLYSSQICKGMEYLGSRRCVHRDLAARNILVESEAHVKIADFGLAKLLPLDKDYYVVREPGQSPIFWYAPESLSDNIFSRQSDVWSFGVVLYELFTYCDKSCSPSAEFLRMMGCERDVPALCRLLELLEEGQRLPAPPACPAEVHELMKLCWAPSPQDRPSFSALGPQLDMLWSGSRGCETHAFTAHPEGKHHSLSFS

T1 sequence (P23458 852-1154): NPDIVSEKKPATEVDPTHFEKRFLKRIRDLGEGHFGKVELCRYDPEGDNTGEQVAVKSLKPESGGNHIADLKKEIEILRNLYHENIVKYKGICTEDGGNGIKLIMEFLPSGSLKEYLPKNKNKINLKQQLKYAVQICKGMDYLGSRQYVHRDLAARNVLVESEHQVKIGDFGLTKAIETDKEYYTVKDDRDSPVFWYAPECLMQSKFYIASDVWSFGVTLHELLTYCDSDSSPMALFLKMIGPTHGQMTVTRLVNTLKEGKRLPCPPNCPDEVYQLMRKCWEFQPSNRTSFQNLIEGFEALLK
T2 sequence (O60674 812-1132): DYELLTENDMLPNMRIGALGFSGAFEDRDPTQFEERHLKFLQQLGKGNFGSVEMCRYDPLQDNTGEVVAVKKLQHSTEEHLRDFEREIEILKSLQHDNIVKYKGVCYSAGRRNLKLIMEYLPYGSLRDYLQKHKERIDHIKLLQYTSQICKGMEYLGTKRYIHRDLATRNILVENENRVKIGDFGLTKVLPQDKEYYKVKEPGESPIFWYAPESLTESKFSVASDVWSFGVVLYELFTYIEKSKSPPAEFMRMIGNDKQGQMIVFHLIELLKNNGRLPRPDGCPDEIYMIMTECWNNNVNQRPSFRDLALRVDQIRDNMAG

Compound	Ki (JAK1) [nM]	Ki (JAK2) [nM]	Ki (TYK2) [nM]	Ki (JAK3) [nM]
N#CCCN1CCC(n2c(CC3CCOCC3)nc3cnc4[nH]ccc4c32)CC1 [Example 812, 3-{4-[2-(Tetrahydro-pyran-4-ylmethyl)-6H-1,3,5,6-tetraaza-as-indacen-1-yl]-piperidin-1-yl}-propionitrile]	37.8	213	316	168
N#CCCN1CCC(n2c(CC3CCCO3)nc3cnc4[nH]ccc4c32)CC1 (centres unmarked) [Example 813, 3-{4-[2-(Tetrahydro-furan-2-ylmethyl)-6H-1,3,5,6-tetraaza-as-indacen-1-yl]-piperidin-1-yl}-propionitrile]	21.1	43	365	39.9
CCc1nccn1CCc1nc2cnc3[nH]ccc3c2n1C1CCN(CCC#N)CC1 [Example 815, 3-(4-{2-[2-(2-Ethyl-imidazol-1-yl)-ethyl]-6H-1,3,5,6-tetraaza-as-indacen-1-yl}-piperidin-1-yl)-propionitrile]	23.5	91.8	254	191
CCn1nccc1CN1CCC(n2c([C@@H](C)O)nc3cnc4[nH]ccc4c32)CC1 [Example 820, (R)-1-{1-[1-(2-Ethyl-2H-pyrazol-3-ylmethyl)-piperidin-4-yl]-1,6-dihydro-1,3,5,6-tetraaza-as-indacen-2-yl}-ethanol]	12	61	166	35.8
Cc1cc(CN2CCC(n3c([C@@H](C)O)nc4cnc5[nH]ccc5c43)CC2)n(C)n1 [Example 821, (R)-1-{1-[1-(2,5-Dimethyl-2H-pyrazol-3-ylmethyl)-piperidin-4-yl]-1,6-dihydro-1,3,5,6-tetraaza-as-indacen-2-yl}-ethanol]	17.7	125	473	55.3
CCn1cc(CN2CCC(n3c([C@@H](C)O)nc4cnc5[nH]ccc5c43)CC2)cn1 [Example 822, (R)-1-{1-[1-(1-Ethyl-1H-pyrazol-4-ylmethyl)-piperidin-4-yl]-1,6-dihydro-1,3,5,6-tetraaza-as-indacen-2-yl}-ethanol]	18.1	894	2810	311
C[C@@H](O)c1nc2cnc3[nH]ccc3c2n1C1CCN(Cc2cncn2C)CC1 [Example 823, (R)-1-{1-[1-(3-Methyl-3H-imidazol-4-ylmethyl)-piperidin-4-yl]-1,6-dihydro-1,3,5,6-tetraaza-as-indacen-2-yl}-ethanol]	22.2	171	179	84.8
C[C@@H](O)c1nc2cnc3[nH]ccc3c2n1C1CCN(Cc2ccn(C)n2)CC1 [Example 825, (R)-1-{1-[1-(1-Methyl-1H-pyrazol-3-ylmethyl)-piperidin-4-yl]-1,6-dihydro-1,3,5,6-tetraaza-as-indacen-2-yl}-ethanol]	26	350	1960	143
C[C@@H](O)c1nc2cnc3[nH]ccc3c2n1C1CCN(Cc2nccn2C)CC1 [Example 826, (R)-1-{1-[1-(1-Methyl-1H-imidazol-2-ylmethyl)-piperidin-4-yl]-1,6-dihydro-1,3,5,6-tetraaza-as-indacen-2-yl}-ethanol]	47	419	1160	209
C[C@@H](O)c1nc2cnc3[nH]ccc3c2n1C1CCN(C2COC2)CC1 [Example 832, (R)-1-[1-(1-Oxetan-3-yl-piperidin-4-yl)-1,6-dihydro-1,3,5,6-tetraaza-as-indacen-2-yl]-ethanol]	55.5	428	493	516
CC(C)(C)NCCOCc1nc2cnc3[nH]ccc3c2n1C1CCN(CCC#N)CC1 [Example 833, 3-{4-[2-(2-tert-Butylamino-ethoxymethyl)-6H-1,3,5,6-tetraaza-as-indacen-1-yl]-piperidin-1-yl}-propionitrile]	18.1	14	125	101
N#CCCN1CCC(n2c(COCC(F)(F)F)nc3cnc4[nH]ccc4c32)CC1 [Example 834, 3-{4-[2-(2,2,2-Trifluoro-ethoxymethyl)-6H-1,3,5,6-tetraaza-as-indacen-1-yl]-piperidin-1-yl}-propionitrile]	33.5	117	637	85.4
N#CCCN1CCC(n2c(COCc3ccc(F)c(F)c3)nc3cnc4[nH]ccc4c32)CC1 [Example 835, 3-{4-[2-(3,4-Difluoro-benzyloxymethyl)-6H-1,3,5,6-tetraaza-as-indacen-1-yl]-piperidin-1-yl}-propionitrile]	37.9	59.1	320	29.6
N#CCCN1CCC(n2c(COCC3CCOC3)nc3cnc4[nH]ccc4c32)CC1 (centres unmarked) [Example 836, 3-{4-[2-(Tetrahydro-furan-3-ylmethoxymethyl)-6H-1,3,5,6-tetraaza-as-indacen-1-yl]-piperidin-1-yl}-propionitrile]	38.6	89	384	95.1
N#CCCN1CCC(n2c(COC3CCOCC3)nc3cnc4[nH]ccc4c32)CC1 [Example 837, 3-{4-[2-(Tetrahydro-pyran-4-yloxymethyl)-6H-1,3,5,6-tetraaza-as-indacen-1-yl]-piperidin-1-yl}-propionitrile]	39.6	83.2	298	114
N#CCCN1CCC(n2c(COCC3CCCC3)nc3cnc4[nH]ccc4c32)CC1 [Example 838, 3-[4-(2-Cyclopentylmethoxymethyl-6H-1,3,5,6-tetraaza-as-indacen-1-yl)-piperidin-1-yl]-propionitrile]	54.2	85.5	618	90.4
N#CCCN1CCC(n2c(COCC3CC3)nc3cnc4[nH]ccc4c32)CC1 [Example 839, 3-[4-(2-Cyclopropylmethoxymethyl-6H-1,3,5,6-tetraaza-as-indacen-1-yl)-piperidin-1-yl]-propionitrile]	61.7	106	595	73.5
N#CCCN1CCC(n2c(COCC3CCC3)nc3cnc4[nH]ccc4c32)CC1 [Example 840, 3-[4-(2-Cyclobutylmethoxymethyl-6H-1,3,5,6-tetraaza-as-indacen-1-yl)-piperidin-1-yl]-propionitrile]	62.3	102	635	104

These reach a lower Ki (JAK1). Values come first.

Ki (JAK1) [nM]	Ki (JAK2) [nM]	Ki (TYK2) [nM]	Ki (JAK3) [nM]	Compound
5.67	46.6	381	162	CCN1CC[C@@H](n2c(CCNS(=O)(=O)C3CC3)nc3cnc4[nH]ccc4c32)[C@@H](F)C1 [Example 809, Cyclopropanesulfonic acid {2-[1-((3S,4R)-1-ethyl-3-fluoro-piperidin-4-yl)-1,6-dihydro-1,3,5,6-tetraaza-as-indacen-2-yl]-ethyl}-amide]
5.72	44.7	385	181	CCN1CC[C@@H](n2c(CCNS(=O)(=O)C(C)C)nc3cnc4[nH]ccc4c32)[C@@H](F)C1 [Example 810, Propane-2-sulfonic acid {2-[1-((3S,4R)-1-ethyl-3-fluoro-piperidin-4-yl)-1,6-dihydro-1,3,5,6-tetraaza-as-indacen-2-yl]-ethyl}-amide]
6.78	62.9	519	130	CCN1CC[C@@H](n2c(CCNC(C)=O)nc3cnc4[nH]ccc4c32)[C@@H](F)C1 [Example 811, N-{2-[1-((3S,4R)-1-Ethyl-3-fluoro-piperidin-4-yl)-1,6-dihydro-1,3,5,6-tetraaza-as-indacen-2-yl]-ethyl}-acetamide]
11.2	88.4	580	90.7	Cn1ccc(CCc2nc3cnc4[nH]ccc4c3n2C2CCN(CCC#N)CC2)n1 [Example 814, 3-(4-{2-[2-(1-Methyl-1H-pyrazol-3-yl)-ethyl]-6H-1,3,5,6-tetraaza-as-indacen-1-yl}-piperidin-1-yl)-propionitrile]
7.69	19.6	90.3	90.8	CC(C)c1nccn1CCc1nc2cnc3[nH]ccc3c2n1C1CCN(CCC#N)CC1 [Example 816, 3-(4-{2-[2-(2-Isopropyl-imidazol-1-yl)-ethyl]-6H-1,3,5,6-tetraaza-as-indacen-1-yl}-piperidin-1-yl)-propionitrile]
8.58	43	207	63.7	CC(F)(F)CCc1nc2cnc3[nH]ccc3c2n1C1CCN(CCC#N)CC1 [Example 817, 3-{4-[2-(3,3-Difluoro-butyl)-6H-1,3,5,6-tetraaza-as-indacen-1-yl]-piperidin-1-yl}-propionitrile]
9.45	383	1380	117	C[C@@H](O)c1nc2cnc3[nH]ccc3c2n1C1CCN(Cc2cnn(C)c2)CC1 [Example 818, (R)-1-{1-[1-(1-Methyl-1H-pyrazol-4-ylmethyl)-piperidin-4-yl]-1,6-dihydro-1,3,5,6-tetraaza-as-indacen-2-yl}-ethanol]
10.9	61.8	161	44.9	C[C@@H](O)c1nc2cnc3[nH]ccc3c2n1C1CCN(Cc2ccnn2C)CC1 [Example 819, (R)-1-{1-[1-(2-Methyl-2H-pyrazol-3-ylmethyl)-piperidin-4-yl]-1,6-dihydro-1,3,5,6-tetraaza-as-indacen-2-yl}-ethanol]
